“And” between values parts separate entries of the source, which are not always exact repeats. Equal values may be shown once.
Legend:
SREBP = experiment: SREBP-responsive promoter luciferase reporter assay in HepG2_LSSprom cells; assay type: cell-based; settings: 6 hours of treatment, medium without serum; read-out: IC50 for luciferase expression
Procedure: HepG2_LSSprom cells were cultured in DMEM with 10% fetal bovine serum and 1% penicillin/streptomycin for 24 hours. Cells were then treated with increasing concentrations of Compound #37 or an equal volume of DMSO in culture medium without serum. Luciferase expression was measured and compared after 6 hours of treatment.

FAS = experiment: Short-term Paigen-diet NASH mouse model: hepatic FAS gene expression (RT-qPCR); assay type: in vivo; settings: FAS relative expression to vehicle group, 21 days
Procedure: To investigate whether Compound #37 prevents the development of pathology associated with NASH and steatosis in an acute exploratory disease model, a study was conducted using a diet-induced acute liver steatosis model in mice. As described below, in this study, C57BL/6J mice were initiated on the Paigen diet and simultaneously treated with Compound #37 (5, 20, and 40 mg/kg/day) or vehicle control (20% HPβCD 10 mL/kg/day) by oral gavage for 21 days.
After acclimation, 8-week old male C57Bl/6J mice (Charles River) weighing about 25 g were randomized in 4 groups according their body weight and treated once daily around noon by oral gavage with vehicle, or Compound #37 at various for 21 days as follows: Group 1: vehicle-20% (2-hydroxypropyl)-β-cyclodextrin (HP-β-CD) (n=10); Group 2: Compound #37, 5 mg/kg (n=10) Group 3: Compound #37, 20 mg/kg (n=10) Group 4: Compound #37, 40 mg/kg (n=10). During the treatment period, body weight and food intake (measured over 24h) were measured 3 times per week and once a week, respectively. During the acclimation, all mice were fed a standard diet (Special Diets Services RM1 (E), product no. 801492) and tap water ad libitum. After the acclimation period, mice were fed until the end of the experiment with a 60% high fat Paigen diet (60 kcal % fat, 1.25% cholesterol, and 0.5% cholate; D11061901, Research Diet) and tap water ad libitum.
Gene expression analysis. Hepatic expression levels of genes involved in lipid metabolism (FAS, SREBP1, ACC1, SCD1), cholesterol metabolism (HMG-CoAR, LDLR), SREBP proteolysis (SCAP, INSIG1), ER stress (PERK), oxidative stress (NRF2), inflammation (MCP-1), and fibrosis (collagen 1α1) were quantified by RTqPCR. Expression level was normalized to 18S gene expression and relative expression to vehicle group was calculated with the […] method.

[1] = tested on: diet-induced NASH obese insulin resistant mice; experiment: DIN mouse model: NAS scores; assay type: in vivo; design: total / steatosis / inflammation / fibrosis / hepatocyte ballooning: scale not given here
Procedure: NAFLD score analysis. A 0.5 cm^3 piece of liver was fixed in 10% formalin for 48-72h, stored in ethanol 70° at 4° C., and processed for eosin/hematoxylin staining and NAFLD score analysis. One section (thickness 3-5 μm) per block was deposited on Superfrost+slides for hematoxylin-eosin staining. Individual slides having a single hepatic lobe section stained with H&E were digitized using a Nanozoomer from Hamamatsu. Sections were evaluated with knowledge of groups. Each section was evaluated and individually scored. A NAFLD scoring system (NAS) adapted from Kleiner et al. (Hepatology 41, 1313-21, 2005), Wu et al. (BMC Vet. Res. 10, 162, 2014), and Lee et al. (J. Lipid Res. 48, 1885-96, 2007). A total of four variables were qualitatively assessed and ranked with a score: (1) hepatocellular steatosis, (2) liver inflammation, (3) lobular fibrosis, and (4) hepatocyte ballooning.
Male C57Bl/6J mice (8 weeks old) were housed in enriched ventilated cages (31×12.5×12.7 cm) throughout the experimental phase. Animals' cages litters were changed at least once a week. Animal were housed 5 per cage on inverted 12-hour light cycle (at 09:00 am lights off), 22±2° C. and 55±10% relative humidity. The acclimation period was 20 days. During the acclimation period, all mice were fed a standard diet (RM1 (E) 801492, SDS) and tap water ad libitum. After the acclimation period, mice were fed with the DIN diet (60% fat, cholesterol enriched) and fructose-enriched tap water ad libitum until the end of the experiment.
At 6 weeks of diet, mice were 4-hour fasted (09:00 am to 1:00 pm) and blood (150 μl/EDTA) was collected at 01:00 pm by retro-orbital bleeding under isoflurane anesthesia. Mice were then allocated in 2 homogenous groups (n=12/group) according to their plasma levels of ALT (average levels: 685U/L), AST (average levels: 627U/L) and HOMA-IR index (average value: 4.7), into 2 homogenous groups (see values at day 0 in Tables 15A and 15B ALT/AST and Tables 16A and 16B for HOMA-IR). Mice were then treated once daily by oral gavage with vehicle (Group 1) or Compound #37 at 20 mg/kg (Group 2) for 70 days.
Each section was evaluated and individually scored using the modified NAFLD scoring system described above.

[2] = NAS score, 20 mg/kg group, mean, n 11

For `CC(C)Cc1cc(-c2nc(-c3ccc(NS(=O)(=O)C(F)(F)F)cc3Cl)cs2)ccn1` [Compound 37, N-(3-chloro-4-(2-(2-isobutylpyridin-4-yl)thiazol-4-yl)phenyl)-1,1,1-trifluoromethanesulfonamide], the IC50 (SREBP) was 2700 nM, the 2DDct (FAS; 5 mg/kg, group mean) was 1.12 and the 2DDct (FAS; 5 mg/kg, individual animals, 5 mg/kg) was 2.2 and 1.54 and 1.55 and 2.34 and 0.68 and 0.39 and 0.91 and 0.65 and 0.33 and 0.59. For the same compound, the 2DDct (FAS; 20 mg/kg, group mean) was 1.18, the 2DDct (FAS; 20 mg/kg, individual animals, 20 mg/kg) was 1.48 and 0.56 and 0.63 and 1.65 and 0.9 and 1.88 and the inflammation score increase ([1]; 20 mg/kg, 70 days, p<0.05 vs. vehicle) was 81%. The fibrosis score reduction ([1]; 20 mg/kg, 70 days, p=0.055 vs. vehicle) was 45%, the total ([1]; NAS score, 20 mg/kg group, individual animal, 20 mg/kg) was 7 and 8 and 3 (2×) and 5 (2×) and 6 (4×) and 4 and the fibrosis [1, 2] was 0.64. It also gave a hepatocyte ballooning [1, 2] of 1.91, an inflammation [1, 2] of 0.91 and a steatosis [1, 2] of 1.91. For the same compound, the total [1, 2] was 5.36.
